We go through 23 compounds from US7157487B2, “Vla-4 inhibitors” (Daiichi Pharmaceutical Co., Ltd., priority 2000, dated 2007).

The target of this assay is T1, integrins haα4 and β1 (VLA-4) expressed on CHO cells (Homo sapiens, UniProt P05556+P13612).
T1 construct: expressed in transfected cells; host or cells: CHO cells
T1 sequence (P13612 34-1032): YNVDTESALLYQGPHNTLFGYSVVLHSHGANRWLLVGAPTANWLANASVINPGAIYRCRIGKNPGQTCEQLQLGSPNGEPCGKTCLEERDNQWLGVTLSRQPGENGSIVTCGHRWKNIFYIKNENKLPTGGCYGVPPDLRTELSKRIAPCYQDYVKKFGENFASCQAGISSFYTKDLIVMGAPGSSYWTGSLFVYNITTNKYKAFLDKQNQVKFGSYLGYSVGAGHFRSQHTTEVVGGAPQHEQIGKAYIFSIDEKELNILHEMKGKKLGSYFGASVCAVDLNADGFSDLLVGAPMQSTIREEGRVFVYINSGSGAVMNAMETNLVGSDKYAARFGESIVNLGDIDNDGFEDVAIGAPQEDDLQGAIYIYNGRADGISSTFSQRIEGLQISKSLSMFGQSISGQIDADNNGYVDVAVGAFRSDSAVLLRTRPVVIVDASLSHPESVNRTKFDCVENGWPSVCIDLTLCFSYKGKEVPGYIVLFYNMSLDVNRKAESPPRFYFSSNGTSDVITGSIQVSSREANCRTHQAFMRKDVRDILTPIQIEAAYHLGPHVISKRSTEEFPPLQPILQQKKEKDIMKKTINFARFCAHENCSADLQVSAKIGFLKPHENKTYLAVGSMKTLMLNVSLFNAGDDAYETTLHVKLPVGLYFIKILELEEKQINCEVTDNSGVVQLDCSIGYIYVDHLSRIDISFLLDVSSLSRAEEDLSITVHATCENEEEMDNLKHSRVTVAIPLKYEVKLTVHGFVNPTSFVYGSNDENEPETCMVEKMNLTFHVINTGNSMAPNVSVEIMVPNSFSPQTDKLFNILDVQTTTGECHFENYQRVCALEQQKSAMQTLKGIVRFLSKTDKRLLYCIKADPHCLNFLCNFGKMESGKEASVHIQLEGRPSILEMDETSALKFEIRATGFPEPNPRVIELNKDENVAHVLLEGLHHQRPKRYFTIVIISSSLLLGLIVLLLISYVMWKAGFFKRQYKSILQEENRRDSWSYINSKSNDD
T1 sequence (P05556 21-798): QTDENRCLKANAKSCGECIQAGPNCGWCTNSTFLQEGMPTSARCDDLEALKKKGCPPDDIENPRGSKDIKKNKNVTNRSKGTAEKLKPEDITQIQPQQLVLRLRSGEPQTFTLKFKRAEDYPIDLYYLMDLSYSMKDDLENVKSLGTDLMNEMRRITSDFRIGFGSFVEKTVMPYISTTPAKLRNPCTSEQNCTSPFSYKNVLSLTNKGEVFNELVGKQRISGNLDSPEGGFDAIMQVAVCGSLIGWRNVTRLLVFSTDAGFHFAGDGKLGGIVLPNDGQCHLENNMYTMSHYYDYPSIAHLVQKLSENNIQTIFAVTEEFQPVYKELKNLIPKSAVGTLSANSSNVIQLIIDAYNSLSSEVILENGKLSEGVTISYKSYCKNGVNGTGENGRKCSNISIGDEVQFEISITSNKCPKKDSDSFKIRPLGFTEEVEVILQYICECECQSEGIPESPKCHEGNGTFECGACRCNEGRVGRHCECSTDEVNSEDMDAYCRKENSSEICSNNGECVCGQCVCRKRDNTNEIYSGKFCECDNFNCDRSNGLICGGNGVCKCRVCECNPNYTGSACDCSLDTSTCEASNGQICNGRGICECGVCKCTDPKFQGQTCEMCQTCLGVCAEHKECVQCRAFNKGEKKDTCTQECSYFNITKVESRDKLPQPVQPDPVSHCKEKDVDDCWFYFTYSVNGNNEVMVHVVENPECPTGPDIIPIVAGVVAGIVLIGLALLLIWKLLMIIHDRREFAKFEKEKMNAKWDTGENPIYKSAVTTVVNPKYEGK
Nature of the assay: In vitro Evaluation Test (1): binding of Eu3+-hVCAM-1 D1D7-IgG to CHO cells expressing integrins α4 and β1. The note with it: inhibition of Eu3+-hVCAM-1 D1D7-IgG binding to CHO cells expressing α4β1; Ki calculated from IC50. As to the method: CHO cells forcedly expressed by the transduction of integrins haα4 and β1 were seeded in a Coster 3599 plate (3×10^4 cells/100 μl/well) and they were cultured for 2 days. After the medium was washed with buffer A* twice, 50 μl/well of Eu^3+-hVCAM-1 D1D7-IgG diluted to […] with an assay buffer ** was added. To the resulting well was added 50 μl/well of a test compound diluted with 2% DMS0-assay buffer (in the presence or absence of 6% human serum albumin) (to a well subjected to Scatchard analysis was added a solution diluted in another manner). After stirring for 5 minutes on a plate mixer, the plate was allowed to stand at room temperature for 1 hour. Then, the plate was washed four times with the buffer A and added with 100 μl/well of an enhancement reagent (DELFIA). The plate was shaken for 5 minutes on a plate mixer, followed by measurement of fluorescence intensity by a time-resolved fluorometer (DELFIA Wallac). From the binding ratio available by the following calculation formula: ((FT−FNS)−(FI−FNS))/(FT−FNS)×100, the IC50 (concentration inhibiting 50% of binding of CHO cells with hVCAM-1 D1D7-IgG) of the test compound was determined. In the above formula, FT means the fluorescence intensity of the well free of the test compound, FNS means the fluorescence intensity of the well free of the test compound and anti-hα4 antibody (SG/73), and FI means the fluorescence intensity of the well containing the test compound. The Kd indicating the binding strength and Bmax (maximum binding) were estimated within a range of 0.06 to 20 nM in accordance with the Scatchard analysis method.
The value Ki was calculated based on:
[formula] ((L) means a ligand concentration). (* buffer A: 25 mM HEPES (pH 7.5), 150 mM NaCl, 1 mM Ca^2+, 1 MM Mg^2+, 4 mM Mn^2+; ** assay buffer: 25 mM HEPES (pH 7.5), 150 mM NaCl, 1 mM Ca^2+, 1 mM Mg^2+, 4 mM Mn^2+, 0.1% BSA, 20 μM DTPA, with/without 6% ALBUMIN, HUMAN SERUM (C/N A-1653, SIGMA)) In vitro Evaluation Test (2)
Consider `Cn1cc(-c2nc3ccc(CC(=O)N4C[C@@H](F)C[C@H]4CN[C@H]4CC[C@H](C(=O)O)CC4)c(F)c3o2)c2ccccc21` [Example 108, trans-4-(N-(1-((7-Fluoro-2-(1-methyl-3-indolyl)-6-benzoxazolyl)acetyl)-(4S)-fluoro-(2S)-pyrrolidinylmethyl)amino)cyclohexanecarboxylic acid], for which the Ki is 21 nM.
For `C[C@H]1C[C@@H](CO[C@H]2CC[C@H](C(=O)O)CC2)N(C(=O)Cc2cc(Cl)c(NC(=O)c3cn(C)c4ccccc34)cc2F)C1` [Example 133, trans-4-(1-(5-Chloro-2-fluoro-4-((1-methyl-1H-3-indolylcarbonyl)amino)phenylacetyl)-(4S)-methyl-(2S)-pyrrolidinylmethoxy)cyclohexanecarboxylic acid], the Ki was 22 nM.
The figure for `COC[C@@H]1CC[C@@H](CO[C@H]2CC[C@H](C(=O)O)CC2)N1C(=O)Cc1cc(Cl)c(NC(=O)c2nn(C)c3ccccc23)cc1F` [Example 168, trans-4-(1-((5-Chloro-2-fluoro-4-((1-methyl-3-indazolyl)carbonyl)aminophenyl)acetyl)-(5S)-methoxymethyl-(2S)-pyrrolidinylmethoxy)cyclohexanecarboxylic acid] is 59 nM; for `O=C(Cc1ccc2nc(-c3nccc4ccccc34)oc2c1)N1C[C@@H](F)C[C@H]1CO[C@H]1CC[C@H](C(=O)O)CC1` [Example 102, trans-4-(1-(2-(1-Isoquinolinyl)-6-benzoxazolylacetyl)-(4S)-fluoro-(2S)-pyrrolidinylmethoxy)cyclohexanecarboxylic acid] it is 47 nM; for `C[C@H]1C[C@@H](CO[C@H]2CC[C@H](C(=O)O)CC2)N(C(=O)Cc2cc(Cl)c(NC(=O)c3nn(C)c4ccccc34)cc2F)C1` [Example 135, trans-4-(1-(5-Chloro-2-fluoro-4-((1-methyl-1H-3-indazolylcarbonyl)amino)phenylacetyl)-(4S)-methyl-(2S)-pyrrolidinylmethoxy)cyclohexanecarboxylic acid] it is 19 nM.
The figure for `COc1cc(CC(=O)N2C[C@@H](F)C[C@H]2CO[C@H]2CC[C@H](C(=O)O)CC2)ccc1NC(=O)c1cc2ccccc2[nH]1` [Example 78, trans-4-(1-((4-((2-Indolylcarbonyl)amino)-3-methoxyphenyl)acetyl)-(4S)-fluoro-(2S)-pyrrolidinylmethoxy)cyclohexanecarboxylic acid] is 14 nM; for `O=C(O)c1ccc(OC[C@@H]2C[C@H](F)CN2C(=O)Cc2ccc(NC(=O)c3c[nH]c4ccccc34)c(Cl)c2)cc1` [Example 15, 4-(1-(3-Chloro-4-(3-indolylcarbonylamino)phenylacetyl)-(4S)-fluoro-(2S)-pyrrolidinylmethoxy)benzoic acid] it is 2.2 nM.
With `Cc1ccccc1Nc1nc2ccc(CC(=O)N3CC[C@@H](Oc4ccc(C(=O)O)cc4)C3)cc2o1` [Example 34, 4-(1-(2-(2-Methylphenylamino)-6-benzoxazolylacetyl)-(3R)-pyrrolidinyloxy)benzoic acid], the Ki was 26 nM.
The value for `Cc1ccccc1Nc1nc2ccc(CC(=O)N3C[C@@H](F)C[C@H]3CNc3ccc(C(=O)O)cc3)cc2o1` [Example 33, 4-(1-(2-(2-Methylphenylamino)-6-benzoxazolylacetyl)-(4S)-fluoro-(2S)-pyrrolidinylmethylamino)benzoic acid] was 31 nM; that for `Cn1cc(C(=O)Nc2cc(F)c(CC(=O)N3CC[C@@H](CO[C@H]4CC[C@H](C(=O)O)CC4)C3)cc2Cl)c2ccccc21` [Example 163, trans-4-(1-(5-Chloro-2-fluoro-4-(1-methyl-3-indolyl)carbonylaminophenylacetyl)-(3R)-pyrrolidinylmethyloxy)cyclohexanecarboxylic acid] was 39 nM; that for `Cc1ccccc1Nc1nc2ccc(CC(=O)N3C[C@@H](F)C[C@H]3C(=O)N3CCC(CC(=O)O)CC3)cc2o1` [Example 31, 1-((4S)-Fluoro-1-(2-(2-methylphenylamino)-6-benzoxazolylacetyl)-(2S)-pyrrolidinylcarbonyl)-4-piperidinylacetic acid] was 16 nM.
As for `O=C(Cc1ccc(Nc2nc3ccc(Cl)cc3s2)c(Cl)c1)N1C[C@@H](F)C[C@H]1CO[C@H]1CC[C@H](C(=O)O)CC1` [Example 59, trans-4-(1-(4-(6-Chloro-2-benzothiazolyl)amino-3-chlorophenylacetyl)-(4S)-fluoro-(2S)-pyrrolidinylmethoxy)cyclohexanecarboxylic acid], the Ki was 7.2 nM.
On to `CN(C)C(=O)CO[C@H]1C[C@@H](CO[C@H]2CC[C@H](C(=O)O)CC2)N(C(=O)Cc2cc(Cl)c(NC(=O)c3cn(C)c4ccccc34)cc2F)C1` [Example 120, trans-4-(1-((5-Chloro-2-fluoro-4-(1-methyl-3-indolylcarbonylamino)phenyl)acetyl)-(4S)-dimethylcarbamoylmethoxy-(2S)-pyrrolidinylmethoxy)-1-cyclohexanecarboxylic acid], for which the Ki is 1.9 nM.
Take `O=C(Cc1ccc(Nc2nc3c(Cl)cccc3s2)c(Cl)c1)N1C[C@@H](F)C[C@H]1CO[C@H]1CC[C@H](C(=O)O)CC1` [Example 60, trans-4-(1-(4-(4-Chloro-2-benzothiazolyl)amino-3-chlorophenylacetyl)-(4S)-fluoro-(2S)-pyrrolidinylmethoxy)cyclohexanecarboxylic acid]: the Ki is 6.3 nM.
The value for `COC[C@@H]1C[C@@H](O[C@H]2CC[C@H](C(=O)O)CC2)CN1C(=O)Cc1ccc2nc(Nc3cc(F)ccc3C)oc2c1F` [Example 156, trans-4-(1-((2-(5-Fluoro-2-methylphenylamino)-7-fluoro-6-benzoxazolyl)acetyl)-(2S)-methoxymethyl-(4R)-pyrrolidinyloxy)cyclohexanecarboxylic acid] was 43 nM; that for `Cc1ccccc1Nc1nc2ccc(CC(=O)N3C[C@@H](O)C[C@H]3COc3ccc(C(=O)O)cc3)cc2o1` [Example 8, 4-((2S,4S)-4-Hydroxy-1-(2-(2-methylphenylamino)-6-benzoxazolylacetyl)-2-pyrrolidinylmethoxy)benzoic acid] was 24 nM.
The figure for `Cc1ccccc1Nc1nc2ccc(CC(=O)N3C[C@@H](F)C[C@H]3COc3ccc(C(=O)O)cc3)c(F)c2o1` [Example 6, 4-((2S,4S)-1-(7-Fluoro-2-(2-methylphenylamino)-6-benzoxazolylacetyl)-4-fluoro-2-pyrrolidinylmethoxy)benzoic acid] is 14 nM; for `Cc1ccccc1Nc1nc2ccc(CC(=O)N3C[C@@H](N(C)C)C[C@H]3COc3ccc(C(=O)O)cc3)cc2o1` [Example 7, 4-((4S)-Dimethylamino-1-(2-(2-methylphenylamino)-6-benzoxazolylacetyl)-(2S)-pyrrolidinylmethoxy)benzoic acid] it is 7.1 nM; for `Cc1c(F)cccc1Nc1nc2ccc(CC(=O)N3C[C@@H](F)C[C@H]3CO[C@H]3CC[C@H](C(=O)O)CC3)c(F)c2o1` [Example 46, trans-4-(1-((2-(3-fluoro-2-methylphenylamino)-7-fluoro-6-benzoxazolyl)acetyl)-(4S)-fluoro-(2S)-pyrrolidinylmethoxy)cyclohexanecarboxylic acid] it is 37 nM.
The value for `Cn1cc(-c2nc3ccc(CC(=O)N4C[C@@H](F)C[C@H]4CO[C@H]4CC[C@H](C(=O)O)CC4)cc3o2)c2cc(Cl)ccc21` [Example 96, trans-4-(1-((2-(5-Chloro-1-methyl-3-indolyl)-6-benzoxazolyl)acetyl)-(4S)-fluoro-(2S)-pyrrolidinylmethoxy)cyclohexanecarboxylic acid] was 20 nM.
As for `Cn1cc(-c2nc3ccc(CC(=O)N4C[C@@H](F)C[C@H]4COC4CCC(C(=O)O)CC4)cc3o2)c2ccccc21` (stereo partly drawn) [Example 40, 4-((4S)-Fluoro-1-(2-(1-methyl-3-indolyl)-6-benzoxazolylacetyl)-(2S)-pyrrolidinylmethoxy)cyclohexanecarboxylic acid], the Ki is 1.9 nM.
Turning to `CS[C@H]1C[C@@H](CO[C@H]2CC[C@H](C(=O)O)CC2)N(C(=O)Cc2ccc3nc(Nc4cc(F)ccc4C)oc3c2F)C1` [Example 126, trans-4-(1-((2-(5-Fluoro-2-methylphenylamino)-7-fluoro-6-benzoxazolyl)acetyl)-(4S)-methylthio-(2S)-pyrrolidinylmethoxy)cyclohexanecarboxylic acid], the Ki was 2 nM.
`COc1cc(CC(=O)N2C[C@@H](F)C[C@H]2CO[C@H]2CC[C@H](C(=O)O)CC2)c(F)cc1NC(=O)c1cn(C)c2ccccc12` [Example 76, trans-4-((4S)-Fluoro-1-(2-fluoro-5-methoxy-4-((1-methyl-1H-3-indolylcarbonyl)amino)phenylacetyl)-(2S)-pyrrolidinylmethoxy)cyclohexanecarboxylic acid]: the Ki is 1.6 nM.
